Measurements: US7554012B2, “Plants and plant cells exhibiting resistance to AMPA, and methods for making the same” (priority 1998, dated 2009)
Values joined by “and” are separate entries in the source; they are usually repeats but may differ in a detail not shown here. Equal entries are not always repeated.

How the values were obtained:
[1] = tested on: recombinant cotton line 4416; test: [^14C]-glyphosate metabolism in cotton line 4416; assay type: in vivo, cotton (Gossypium hirsutum L.); conditions: line 4416 plants; listed as [^14C]-Glyphosate
Protocol: Coker 312 glyphosate resistant recombinant cotton line 4416 was selected as a glyphosate resistant cotton line after transformation with pMON10149, a triple gene Agrobacterium tumefaciens mediated double border plant transformation vector containing chloroplast targeted EPSPS, GOX, and PhnO, each expressed independently from separate 35S promoters. Several 4416 R3 plants were raised from R2 seed. One leaf of each plantlet at the three or four stage was treated with a mixture of ROUNDUP ULTRA™ commercial herbicide mixture (Lot No. GLP-9701-7428-F) which had been fortified with [^14C]-glyphosate (Code No. C-2251). […] The treatment solution consisted of approximately 38 μL containing 1.60×10^6 dpm with a [^14C]-glyphosate specific activity of 1.713×10^3 dpm/μg glyphosate acid. Three or seven days after topical application the treated leaves were rinsed with water, frozen in liquid nitrogen, fractured with a spatula and then ground using a TEKMAR™ tissuemizer in 10 mL of water. The leaf extracts were adjusted to pH 3.5-4.0 with 1N HCl and approximately 4-8000 dpm were analyzed for the presence of [^14C]-metabolites by HPLC with liquid scintillation vial collection and detection (HPLC/LSC) as described in example 2. The new growth including the meristem and new leaves that emerged following topical application were also extracted and analyzed for [^14C]-metabolites.

transformed corn callus = test: [^14C]-glyphosate metabolism assay in corn callus
Source text: A [^14C]-glyphosate metabolism assay was used for determining whether transformed corn callus tissues contain functioning forms of these enzymes. The assay was developed to screen large numbers of corn callus samples. Callus was obtained from Monsanto Company and Dekalb Seed Company corn transformation groups. The Monsanto callus samples, individually designated as callus lines “19nn-nn-nn” in Table 16, were produced from HI II×B73 corn embryos. Callus samples were bombarded with complete covalently closed circular recombinant plant transformation vector plasmid DNA or with linear DNA fragments isolated from such plasmids 25-50 days after embryo isolation. Transformed lines were identified 8-14 weeks after bombardment. These lines were sub-cultured on fresh media every 2 weeks and were 5-7 months old when used in the metabolism assay. The Dekalb callus lines OO, OR, OW, OX, and OY were obtained from HI II×AW embryos. All line designations correspond to the recombinant plasmid or linear fragment used for ballistic transformation of callus tissue as noted in the legend to Table 16.
4.5 mCi of N-phosphono-[^14C]-methylglycine ([^14C]-glyphosate) was obtained from the Monsanto Radiosynthesis group in a 1.5 mM aqueous solution, having a specific radioactivity of 39.4 mCi/mM (5.2×10^5 dpm/microgram). The sample was identified with code number C-2182.2. A stock solution sterilized by filtration through a 0.2-micron Acrodisk (Gelman no. 4192) was prepared by combining 2.5 mL [^14C]-glyphosate (3.3×10^8 dpm) with 2.5 mL of corn callus growth medium (N6 medium) and 5.0 mg of Mon 0818 surfactant. [^14C]-glyphosate in the resulting dose solution was 0.75 mM. The N6 medium was described by Chu et al. (1975) and was prepared using salts and vitamins obtained from Sigma Chemical Company, St. Louis, Mo. Mon 0818 surfactant is ethoxylated tallowamine, the surfactant used in Roundup herbicide. The dose solution was subjected to HPLC analysis as described in Example 2. […] Two additional dose solutions were prepared using these reagents, each of which were scaled three fold to 15 ml volumes based on the preparation method described above.
Under aseptic conditions, corn callus samples were transferred to individual wells of sterile 48-well COSTAR™ cell culture clusters (cat. No. 3548). The individual callus samples were not weighed. However, in several cases the total weight of the callus samples in a 48-well plate was determined. Typically, the average weight of individual callus samples was approximately 200-250 mg. In each assay, a nontransformed callus sample, HI II×B73, was included as a control. 50 μL of dose solution containing 3.3×10^6 dpm of [^14C]-glyphosate was added to each callus sample. 48-well plates were sealed with parafilm and placed in a plastic bag containing a wet paper towel to provide a moist atmosphere. Bags were closed and placed in a dark drawer at 25° C. for 10 days. Each callus sample was subsequently transferred to a labeled microcentrifuge tube (VWR, 1.7-mL, cat. No. 20170-620). 1.0 mL of de-ionized water was added to each tube, and the tubes were closed and placed in round 20-tube floating microcentrifuge racks (Nalge cat. no. 5974-1015). These microfuge tubes were floated in boiling water for 30 minutes, shaken using a vortex mixer, and centrifuged for 5 minutes using a Fisher brand microcentrifuge. 120-μL supernatant samples were removed for analysis by HPLC as described below. The samples were injected using a Waters WISP autoinjector.

[2] = tested on: R2 glyphosate tolerant wheat plants; test: [^14C]-glyphosate metabolism in wheat plants; assay type: in vivo, Triticum aestivum cv Bobwhite
Protocol: R2 seed was germinated from a number of different glyphosate tolerant lines to produce R2 glyphosate tolerant plants to which [^14C]-glyphosate was applied as described above. Plant leaf and stem tissues were harvested at 48 hours after glyphosate application, and water soluble compounds were extracted as described above and analyzed by HPLC as in example 2 for the presence of [^14C]-glyphosate metabolites. The total area under the [^14C] isotope labeled peaks eluting from the column was summed to provide a baseline of 100% [^14C]-compound identification for each sample analyzed.

[3] = [^14C]-glyphosate in growth medium exposed to light
Protocol: Growth medium to which [^14C]-glyphosate was added was treated to the same conditions as wheat plants, ie, the medium was exposed to incident light intensities which plants received.

[4] = FIG. 3, callus transformed with GOX and AMPA acetyltransferase
[5] = control callus HI II×B73, no inserted genes
[6] = EPSPS + PhnO + GOX, Plant Line 25462
[7] = EPSPS + PhnO + GOX, Plant Line 26281
[8] = EPSPS + PhnO + GOX, Plant Line 28598
[9] = non-recombinant Bobwhite plants

N-phosphono-methyl-glycine [Glyphosate]
% [^14C] metabolite in Glyphosate Treated Leaf Extract: AMPA [1]: 2.1% and 2.0% and 1.6% and 2.2% and 2.5%
% [^14C] metabolite in Glyphosate Treated Leaf Extract: N-Acetyl-AMPA [1]: 27-74%
% [^14C] metabolite in New Growth Extract: AMPA [1]: 0.2% and 0.5% and 2.5%
% [^14C] metabolite in New Growth Extract: Glyphosate [1]: greater than 90%
% [^14C] metabolite in New Growth Extract: N-Acetyl AMPA [1]: greater than 90%
N-acetyl-[^14C]AMPA, of total observed [^14C] (transformed corn callus; [4]): 4.54%
[^14C] AMPA, of total observed [^14C] (transformed corn callus; [4]): 1.71%
[^14C] glyphosate, of total observed [^14C] (transformed corn callus; [4]): 92.5%
Percent N-Acetyl-[^14C]-AMPA (transformed corn callus; callus OR516 transformed with pMON32926): 0.50-4.54%
Percent N-Acetyl-[^14C]-AMPA (transformed corn callus; callus OR516 transformed with pMON32926, listed as [^14C]-glyphosate): 1.91%
Percent [^14C]-AMPA (transformed corn callus; callus line transformed with pMON32571): 2.89%
Percent N-Acetyl-[^14C]-AMPA (transformed corn callus; callus line transformed with pMON32573): 0.39%
Percent N-Acetyl-[^14C]-AMPA (transformed corn callus; callus line transformed with pMON32932): 0.28%
Percent N-Acetyl-[^14C]-AMPA (transformed corn callus; callus line transformed with pMON32938): 0.21%
Percent [^14C]-AMPA (transformed corn callus; callus line transformed with pMON32946): 2.51%
Percent [^14C]-AMPA (transformed corn callus; callus line transformed with pMON32947): 1.99%
Percent N-Acetyl-[^14C]-AMPA (transformed corn callus; callus line transformed with pMON32952): 0.37%
Percent N-Acetyl-[^14C]-AMPA (transformed corn callus; callus lines transformed with pMON32571, listed as [^14C]-glyphosate): 0.22% and 0.25%
Percent N-Acetyl-[^14C]-AMPA (transformed corn callus; callus lines transformed with pMON32931, listed as [^14C]-glyphosate): 0.40% and 0.75% and 0.55%
Percent [^14C]-AMPA (transformed corn callus; callus lines transformed with pMON32936, listed as [^14C]-glyphosate): 2.29% and 3.05% and 2.15% and 2.06%
Percent [^14C]-AMPA (transformed corn callus; callus lines transformed with pMON32938, listed as [^14C]-glyphosate): 2.41% and 2.90%
Percent N-Acetyl-[^14C]-AMPA (transformed corn callus; callus lines transformed with pMON32946, listed as [^14C]-glyphosate): 0.77% and 0.85%
Percent N-Acetyl-[^14C]-AMPA (transformed corn callus; callus lines transformed with pMON32947, listed as [^14C]-glyphosate): 0.60% and 0.71%
N-acetyl-[^14C]-AMPA produced (transformed corn callus; [5]): no detectable levels
[^14C]-AMPA produced (transformed corn callus; [5]): only background levels
Acetyl-[^14C]-AMPA, of summed [^14C] peaks [2, 6]: 0%
[^14C]-Glyphosate, of summed [^14C] peaks [2, 6]: 48% and 44% and 54%
Acetyl-[^14C]-AMPA, of summed [^14C] peaks [2, 7]: 17% and 13% and 7%
[^14C]-AMPA, of summed [^14C] peaks [2, 7]: 14% and 11% and 7%
[^14C]-Glyphosate, of summed [^14C] peaks [2, 7]: 48% and 64% and 38%
[^14C]-Glyphosate, of summed [^14C] peaks ([2]; EPSPS + PhnO + GOX, Plant Line 27249): 6% and 14% and 5%
Acetyl-[^14C]-AMPA, of summed [^14C] peaks [2, 8]: 5%
[^14C]-AMPA, of summed [^14C] peaks [2, 8]: 7%
[^14C]-Glyphosate, of summed [^14C] peaks [2, 8]: 20% and 25%
[^14C]-Other, of summed [^14C] peaks [2, 8]: 68% and 63%
Acetyl-[^14C]-AMPA, of summed [^14C] peaks ([2]; EPSPS, Plant Line 24756): 1% and 0%
[^14C]-AMPA, of summed [^14C] peaks ([2]; EPSPS, Plant Line 24756): 25% and 46%
[^14C]-Glyphosate, of summed [^14C] peaks ([2]; EPSPS, Plant Line 24756, 48 hours after application): 43% and 53%
Acetyl-[^14C]-AMPA, of summed [^14C] peaks ([2]; EPSPS, Plant Line 25397): 0% and 1.2%
[^14C]-AMPA, of summed [^14C] peaks ([2]; EPSPS, Plant Line 25397): 38% and 19% and 20%
[^14C]-Glyphosate, of summed [^14C] peaks ([2]; EPSPS, Plant Line 25397): 61% and 37% and 64%
Acetyl-[^14C]-AMPA, of summed [^14C] peaks [2, 9]: 0%
[^14C]-AMPA, of summed [^14C] peaks [2, 9]: 26% and 15% and 24%
Acetyl-[^14C]-AMPA, of summed [^14C] peaks [3]: 2% and 0% and 0.2%
[^14C]-Glyphosate, of summed [^14C] peaks ([3]; same light exposure as plants): 48% and 87% and 60%
